Results taken from patent US20090312349A1, “ANTI-INFLAMMATORY MEDICAMENTS” (priority 2004, published 2009).

Biological target: T1, phospho p-38 alpha kinase (Homo sapiens, UniProt Q16539)
T1 construct: purchased Panvera
Experiment: P-38 alpha kinase assay (spectrophotometric, pyruvate kinase/lactate dehydrogenase coupled)
Format: biochemical
Conditions: Table 5; for IC50: assay not named, read-out: uM
Experimental: In this assay, the oxidation of NADH was continuously measured spectrophometrically. […] The reaction was initiated by adding ATP. The absorption at 340 nm was monitored continuously for up to 4 hours at 30° C. on Polarstar Optima plate reader (BMG). The kinase activity (reaction rate) was calculated from the slope at the time frame from 1.5 h to 2 h.
For inhibition determinations, test compounds were incubated with the reaction mixture for ˜5 min before adding ATP to start the reaction. […] IC50 values were calculated from a series of % inhibition values determined at a range of concentrations of each inhibitor using Prism to process the data and fit inhibition curves. Generally, the rates obtained at the time frame of 1.5 h to 2 h were used for these calculations.

T1 sequence (Q16539 whole entry): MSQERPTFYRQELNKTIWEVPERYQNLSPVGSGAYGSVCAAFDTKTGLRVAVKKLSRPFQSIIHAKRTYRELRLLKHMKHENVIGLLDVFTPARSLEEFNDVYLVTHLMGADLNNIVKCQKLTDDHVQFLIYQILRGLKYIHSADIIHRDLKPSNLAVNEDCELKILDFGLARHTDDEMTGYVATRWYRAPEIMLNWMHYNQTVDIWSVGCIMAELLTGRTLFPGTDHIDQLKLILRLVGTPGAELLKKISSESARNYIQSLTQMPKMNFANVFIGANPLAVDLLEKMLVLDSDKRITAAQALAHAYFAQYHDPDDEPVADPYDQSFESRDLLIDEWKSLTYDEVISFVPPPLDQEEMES

SMILES	IC50 [µM]	also measured
CCOC(=O)c1ccc(-n2nc(C)cc2NC(=O)Nc2cccc(Cl)c2Cl)cc1 [Example 346, ethyl 4-{5-[3-(2,3-dichlorophenyl)ureido]-3-methyl-1H-pyrazol-1-yl}benzoate]		% @ concentration, uM (@ 0.1 uM): 19%; % @ concentration, uM (@ 1 uM): 63%
Cc1cc(NC(=O)Nc2cccc(Cl)c2Cl)n(-c2ccc(CO)cc2)n1 [Example 347, 1-(2,3-dichlorophenyl)-3-{1-[4-(hydroxymethyl)phenyl]-3-methyl-1H pyrazol-5-yl}urea]		% @ concentration, uM (@ 0.1 uM): 8%; % @ concentration, uM (@ 1 uM): 31%
Cc1cc(NC(=O)Nc2cccc3ccccc23)n(-c2ccc(C(O)C(F)(F)F)cc2)n1 (stereo not shown) [Example 348, 1-{3-methyl-1-[4-(2,2,2-trifluoro-1-hydroxyethyl)phenyl]-1H-pyrazol-5-yl}-3-(naphthalen-1-yl)urea]		% @ concentration, uM (@ 0.1 uM): 17%; % @ concentration, uM (@ 1 uM): 47%
CC(C)c1cc(NC(=O)Nc2cccc3ccccc23)n(-c2cccc(C=O)c2)n1 [Example 350, 1-[1-(3-formylphenyl)-3-isopropyl-1H-pyrazol-5-yl]-3-(naphthalen-1-yl)urea]		% @ concentration, uM (@ 0.1 uM): 39%; % @ concentration, uM (@ 1 uM): 64%
CC(C)(C)c1cc(NC(=O)Nc2cccc(Cl)c2Cl)n(-c2ccc(CO)cc2)n1 [Example 363, 1-{3-t-butyl-1-[(hydroxymethyl)phenyl]-1H-pyrazol-5-yl}-3-(2,3-dichloro-phenyl)urea]	0.19	
CC(C)(C)c1cc(NC(=O)Nc2cccc(Cl)c2Cl)n(-c2ccc(C(=O)O)cc2)n1 [Example 365, 4{-3-t-butyl-5-[3-(2,3-dichlorophenyl)ureido]-1H-pyrazol-1-yl}benzoic acid]	0.007	
CCOC(=O)c1cccc(-n2nc(C(C)(C)C)cc2NC(=O)Nc2cccc3ccccc23)c1 [Example 366, ethyl 3-{3-t-butyl-5-[3-(naphthalen-1-yl)ureido]-1H-pyrazol-1-yl}benzoate]		% @ concentration, uM (@ 10 uM): 53% @ 10

Continued, in another order:

IC50 [µM]	SMILES	also measured
0.043	O=C(Nc1cccc(Cl)c1)Nc1cc(-c2ccccc2)nn1-c1cccc(CO)c1 [Example 352, 1-{3-phenyl-1-[3-(hydroxymethyl)phenyl]-1H-pyrazol-5-yl}-3-(3-chlorophenyl)urea]	
0.11	O=C(Nc1cccc(C(F)(F)F)c1)Nc1cc(-c2ccccc2)nn1-c1cccc(CO)c1 [Example 354, 1-{3-phenyl-1-[3-(hydroxymethyl)phenyl]-1H-pyrazol-5-yl}-3-(3-trifluoromethylphenyl)urea]	
0.042	COc1cccc(NC(=O)Nc2cc(-c3ccccc3)nn2-c2cccc(CO)c2)c1 [Example 355, 1-{3-phenyl-1-[3-(hydroxymethyl)phenyl]-1H-pyrazol-5-yl}-3-(3-methoxyphenyl)urea]	
0.13	CCOC(=O)c1ccc(-n2nc(C(C)(C)C)cc2NC(=O)Nc2cccc3ccccc23)cc1 [Example 357, ethyl 4-{3-t-butyl-5-[3-(naphthalen-1-yl)ureido]-1H-pyrazol-1-yl}benzoate]	
0.1	CC(C)(C)c1cc(NC(=O)Nc2cccc3ccccc23)n(-c2ccc(CO)cc2)n1 [Example 358, 1-{3-t-butyl-1-[4-(hydroxymethyl)phenyl]-1H-pyrazol-5-yl}-3-(naphthalen-1-yl)urea]	
0.39	CC(O)c1ccc(-n2nc(C(C)(C)C)cc2NC(=O)Nc2cccc3ccccc23)cc1 (stereo not shown) [Example 360, 1-{3-t-butyl 1-[4-(1-hydroxyethyl)phenyl]-1H-pyrazol-5-yl}-3-(naphthalen-1-yl)urea]	
0.87	C#CC(O)c1ccc(-n2nc(C(C)(C)C)cc2NC(=O)Nc2cccc3ccccc23)cc1 (stereo not shown) [Example 361, 1-{3-t-butyl-1-[4-(1-hydroxyprop-2-ynyl)phenyl]-1H-pyrazol-5-yl}-3-(naphthalen-1-yl)urea]	
0.01	CC(C)(C)c1cc(NC(=O)Nc2cccc(Cl)c2Cl)n(-c2ccc(C(C)(C)O)cc2)n1 [Example 364, 1-{3-t-butyl-1-[4-(2-hydroxypropan-2-yl)phenyl]-1H-pyrazol-5-yl}-3-(2,3-dichlorophenyl)urea]	
